Test system: SARS-CoV-2
Assay: Pirfenidone and nintedanib therapy during post-acute phase in patients with severe SARS2 lung damage (Example 3)
Format: in vivo, human
Details: one patient
Description: Pirfenidone and Nintedanib therapy during the post-acute phase mitigates functional and structural lung loss, preserves lung function and structure, and can improve lung capacity and exertional tolerance in patients previously infected SARS2 with significant pulmonary functional and structural loss as a result of their severe infections. This transition period can be determined in any number of ways including but not limited to laboratory, blood serum, urine, fecal, sputum, bronchial lavage, imaging, genomic or tissue-based testing. These patients can also be characterized in one embodiment as those patients with prolonged hospitalization due to lung disease, prolonged ventilation, course of ECMO, high peaks during hospitalization 1.5 times above the upper of normal for LDH, or Ferritin, or CRP, >30% loss in pulmonary capacity or pulmonary reserve, significant scarring and/or fibrosis seen by CT imaging, MRI, PET imaging or chest x-ray, significant reductions in physiological and functional measures as assessed by the objective physiologic and functional assessments described above, and/or a progressive or worsening pattern of any of such measures over time. During this period, pharmacologic agents and combinations as disclosed herein can be administered to limit, contain, or restrain or reduce such damage and limit the progression of severe SARS2 associated lung damage as described above both physiologically functionally and structurally. A patient with severe clinical COVID symptoms and severe lung damage, and >40% loss of pulmonary reserve by objective testing was treated with pirfenidone starting 1 month after discharge. […] A similar patient was treated with a 50% loss of pulmonary reserve.

[1] = severe COVID, >40% loss of pulmonary reserve, treatment from 1 month after discharge, at 3 months

SMILES	structural and physiologic declines (50% loss of pulmonary reserve, initiated two months post-discharge, at 4 months)	PFTs [1]	progression of structural lung damage by high-resolution CT (HRCT) imaging [1]
COC(=O)c1ccc2c(c1)NC(=O)/C2=C(\Nc1ccc(N(C)C(=O)CN2CCN(C)CC2)cc1)c1ccccc1 [nintedanib]	stabilized and arrested		
Cc1ccc(=O)n(-c2ccccc2)c1 [pirfenidone]		improvement	reduction in progression

— patent US11160814B1, “Methods of treatment for disease from coronavirus exposure” (Ensemble Group Holdings, priority 2020, dated 2021)
